From PMC8826726, “Selective Toxicity of Secondary Metabolites from the Entomopathogenic Bacterium Photorhabdus luminescens sonorensis against Selected Plant Parasitic Nematodes of the Tylenchina Suborder” (Microbiology Spectrum, 2022)
In brackets after ≈: the same amount, converted by molar mass.

How the values were obtained:
Meloidogyne incognita J2 = assay: Recovery from indole-induced temporary paralysis after rinsing with water; format: cell-based
[1] = tested on: Tylenchulus semipenetrans J2 juveniles; assay: microbe, parasite or virus in culture; conditions: Tylenchulus semipenetrans, 24 h
Source text: (§1) Only soil inhabiting (free-living or infective) stages of target and non-target nematode species were considered in the present study. All nematode cultures (except T. semipenetrans) were maintained in the Stock laboratory (University of Arizona). M. incognita was reared in planta using susceptible tomato plants (cv. Roma VF; seedlings with five or six true leaves; courtesy of Dr. J. Brown, University of Arizona). Eggs of M. incognita were extracted from infected tomato plant roots, and J2 were collected after hatching, following the procedures of Atamian et al. ([50]). T. semipenetrans was isolated from infested lemon orchards at the Yuma Agricultural Center, University of Arizona (Yuma, AZ, USA). Eggs of T. semipenetrans were extracted from infected lemon tree roots using the procedures of El-Borai et al. ([51]), and J2 were collected using the same procedure as that described for M. incognita.
(§2) Twelve-well tissue culture plates were used as the experimental arena. For each of the tested nematode species, an inoculum of 100 nematodes, suspended in 20 μL distilled water, was added to each well. […] For PPA (Enamine) and indole (Alfa Aesar), 13 incremental concentrations were tested ranging from 10 to 400 μg/mL in 1 mL of distilled water (DMSO ≤ 1%; vol/vol). […] Distilled water with 1% DMSO was used as the negative control. To measure the combined nematicidal effects of the three SMs, equal concentrations of two or three SMs were mixed in 1:1 or 1:1:1 mixture. For example, a 20 μg/mL solution of a two-SM mixture contained 20 μg from metabolite A and 20 μg metabolite B, dissolved in 1 mL distilled water. Individual or combined SMs from 10 μg/mL to 200 μg/mL (in 20 μg/ml increments) were prepared in distilled water (DMSO ≤ 1%; vol/vol) and used for the bioassays.
(§3) The well plates were covered with their lids and incubated at 25°C in the dark. For the targeted nematode species, nematicidal activity was recorded at 24 h, 48 h, and 72 h after initial exposure to the individual SMs. For the non-target species, data were only recorded at 24 h after initial exposure to the individual SMs. For SM mixtures, mortality was recorded 24 h after initial exposure of the targeted nematode species. Nematodes were probed with a needle to assess if they were alive, dead, or paralyzed. […] Those nematodes that resumed activity upon probing were considered to suffer from temporary paralysis (impaired motility). Paralyzed nematodes were rinsed at least three times in distilled water and held for an additional 24 h to check for their recovery from temporarily paralysis. […] Experiments were repeated at least three times per treatment for each concentration tested.
(§4) For the toxicity data visualization, the relationship between percent mortality or temporary paralysis and metabolite concentration were described by a sigmoidal curve, which was fitted by the logistical function using the statistical software package SigmaPlot for Windows, version 14.0 (Systat Software Inc.). […] Concentration-response data of single metabolites or SM mixtures were pooled for each concentration and subjected to probit regression analysis using the Polo Plus program (LeOra Software). The LC or EC values, along with the corresponding 95% confidence intervals, were estimated for each single SM or SM mixture at each exposure time, depending on the experimental setting.

[2] = tested on: Meloidogyne incognita J2 juveniles; assay: microbe, parasite or virus in culture; conditions: Meloidogyne incognita, 24 h
Source text: as §1, §2, §3, §4

[3] = tested on: NCI-H460 (non-small cell lung cancer); assay: MTT cytotoxicity assay; format: cell-based, human; conditions: tested at 50, 100, 200 μM, data not shown
Method: (§5) The non-cancerous HFF cells (human foreskin cells) and three human cancer cell lines, NCI-H460 (non-small cell lung cancer), SF-268 (central nervous system glioma), and MCF-7 (breast cancer) were used to evaluate the in vitro cytotoxicity of the isolated Photorhabdus SMs. The MTT (3-(4,5-dimethylthiazol-2-yl)-2,5-diphenyltetrazolium bromide) colorimetric method ([54]) was used with doxorubicin as the positive control, and DMSO as the negative control. Photorhabdus SMs were tested at 50, 100, and 200 μM concentrations, and the assays were repeated three times.

[4] = tested on: SF-268 (central nervous system glioma); assay: MTT cytotoxicity assay; format: cell-based, human; conditions: tested at 50, 100, 200 μM, data not shown
Method: as §5

MCF-7 (breast cancer) = assay: MTT cytotoxicity assay; format: cell-based, human; conditions: tested at 50, 100, 200 μM, data not shown
Method: as §5

[5] = tested on: non-target nematodes versus targeted PPNs; assay: Selectivity index, non-target nematodes over targeted PPNs
Method: The selectivity index of a given SM was calculated by dividing the averages of the LC50 or EC50 values obtained against each of the selected non-target nematodes by the LC50 or the EC50 values observed for each of the targeted PPN tested.

R. blumi [6] = assay: In vitro nematistatic assay (temporary paralysis), non-target species; format: cell-based, Rhabditis blumi
R. blumi [7] = assay: in vitro; conditions: data not shown
Source text: (§6) The non-target species, C. elegans wild-type strain N2 Bristol (courtesy of Dr. G.L. Sutphin, University of Arizona) and Rhabditis blumi DF5010 (Caenorhabditis Genetics Center, University of MN, USA) were maintained in vitro in nematode growth medium (NGM) agar plates seeded with Escherichia coli (Migula) Castellani and Chalmers, strain OP-50, as described previously ([52]). Mixed juveniles and hermaphrodites (5 to 6 days old) were collected from the culture plates prior to the bioassays. Infective third-stage juveniles (IJs) of three non-target entomopathogenic nematode species (H. sonorensis Caborca strain, H. bacteriophora TT01 strain, and Steinernema carpocapsae All strain) were also maintained by rearing them in vivo using wax moth larvae (Galleria mellonella) as the host, according to procedures described previously ([53]), and collected for bioassays within 2 to 4 days of their emergence from nematode-infected cadavers. Nematode population density (number of nematodes per ml) was standardized prior to setting up well-plate bioassays, by adjusting each nematode suspension to a concentration of 100 nematodes in 20 μL of distilled water.
as §2, §3, §4

C. elegans = assay: in vitro; conditions: data not shown
Source text: as §6, §2, §3, §4

[8] = tested on: HFF cells (human foreskin cells); assay: MTT cytotoxicity assay; format: cell-based; conditions: tested at 50, 100, 200 μM, data not shown
Method: as §5

H. sonorensis = assay: In vitro nematistatic assay (temporary paralysis), non-target species; format: cell-based; conditions: Heterorhabditis sonorensis; reversible paralysis, 24 h exposure

With `c1ccc2[nH]ccc2c1` [Indole, indole] the “Recovery after 24 h in water” value (Meloidogyne incognita J2; 60 μg/mL, 24-h exposure to treatment) was 95.9%, the “Recovery after 24 h in water” value (Meloidogyne incognita J2; 60 μg/mL, 72-h exposure to treatment) was 95.5% and the “Recovery after 24 h in water” value (Meloidogyne incognita J2; 80 μg/mL, 24-h exposure to treatment) was 94.9%. The “Recovery after 24 h in water” value (Meloidogyne incognita J2; 80 μg/mL, 72-h exposure to treatment) was 92.8%, the “M. incognita regaining baseline mobility during a recovery period of 24 h” value (Meloidogyne incognita J2; regardless of length of prior exposure (24 h to 72 h)) was “over 90%” and the LC50 [1] was 388 mg/L (≈ 3310 µM). For the same molecule, the LC50 [2] was 307 mg/L (≈ 2620 µM), the “In vitro cytotoxicity: none even at the highest concentration tested” value (“In vitro cytotoxicity: none even” for short) [3] was greater than 200 µM and the “In vitro cytotoxicity: none even” value [4] was greater than 200 µM. For the same molecule, the “In vitro cytotoxicity: none even” value (MCF-7 (breast cancer)) was greater than 200 µM, the “Selectivity index (EC50), bacteria-feeding nematodes alone” value ([5]; 24 h EC50) was 2–3 and the “Selectivity index (EC50), entomopathogenic nematodes alone” value ([5]; 24 h EC50) was 7-11. The “Selectivity index (EC50), selected non-target nematode species” value ([5]; 24 h EC50, all non-target species) was 5–8, the “Reduction of 24-h EC50 against R. blumi versus C. elegans” value (R. blumi [6]; 24 h) was 77% and the EC50 (R. blumi [6]; Metarhabditis blumi, reversible paralysis, 24 h exposure) was 37 mg/L (≈ 316 µM). For the same molecule, the “Concentrations showing nematicidal activity” value (R. blumi [7]) was no less than 300 µg/mL, the “Concentrations showing nematicidal activity” value (C. elegans) was no less than 300 µg/mL and the “In vitro cytotoxicity: none even” value [8] was greater than 200 µM. For the same molecule, the EC50 (H. sonorensis) was greater than 400 mg/L.
